Results from patent US20110091485A1, “MODULATION OF CELL JUNCTIONS” (priority 2007, published 2011).
Where a SMILES comes first, the peptide text is derived from it. [ ]: non-standard residue; d: D form. Nle = CCCC[C@H](N)C(=O)O

Key:
[1] = test system: Cx43; experiment: Cx43 levels and Y247 phosphorylation in LA25 cells treated with ALLN (immunoblot); format: cell-based; details: LA25 cells at 35° C. (src active), ALLN 3 h
Experimental: FIG. 16. (A) Src activity leads to reduced levels of Cx43 in gap junctions unless rescued by ALLN treatment. LA25 cells grown at 40° C. or 35° C. (permissive) were untreated or treated with ALLN for 3 h and total Cx43 levels were determined by immunoblot. […] Cells grown at 35° C. were treated with ALLN for 3 h or untreated and pY247 and pY265 levels relative to total Cx43 were determined. In both A & B total cell lysates were harvested, blotted and probed (n=4 separate expts).

[2] = test system: GJC; details: cited from earlier work
[3] = test system: SFKs; experiment: SFK inhibition with PP2 in keratinocytes (Cx43 immunofluorescence, scratch wound); format: cell-based
Experimental: FIG. 13. […] Keratinocytes were pretreated with PP2 (5 μM, 2 h), scratch wounded and after 12 h were fixed in cold methoano/acetone and processed for immunofluorescence for total Cx43 (green). Cell nuclei were stained with DAPI (blue) and the scratched area is shown by an arrow.

[4] = target: T1, Gp140 (Mus musculus, UniProt Q5U462); details: cited from earlier work
T1 construct: from tissue; host or cells: mouse epidermis

[5] = target: T2, Gp140 (Homo sapiens, UniProt Q9H5V8); format: cell-based; details: keratinocytes, P1C3 15 min, suramin 35 μM
T2 construct: endogenous in cells; host or cells: human keratinocytes (HKs)
Experimental: Zymosan or ActGp140 mAb were added to keratinocytes and incubated (30 min), washed, fixed (2% formaldehyde in cacodylate, 10 min) and permeabilized (0.5% Triton-X100, 5 min).
Human keratinocytes were grown in 30 μM Ca^+2 then treated with zymosan (20 μg/10^6 cells) for 30 min or 2 h, extracted with Triton X-100 (0.5% for 5 min) and fixed and stained with Abs against ZO-1 and afadin (AF-6).
Keratinocytes were treated (2 h) with ActGp140 mAb, washed, extracted with Triton X-100 detergent (0.5%, 5 min, 4° C.), fixed and stained with Abs against the indicated proteins.
Keratinocytes (grown in 30 μM Ca^+2) were untreated or treated with ActGp140 or NActGp140 mAbs for 1.5 hrs, washed, extracted with Triton X-100 (0.5% at 4° C. for 5 min) then stained.
(b-c) anti-Gp140 mAb (P1C3). (d) Same field as c stained with Abs against Gp140pY734.

[6] = target: T2, Gp140; experiment: Phosphorylation of Gp140, SFK and PKCδ in keratinocytes (immunoblotting); format: cell-based; details: 5 min
[7] = target: T2, Gp140; experiment: α-catenin localization in cell-cell contacts of keratinocytes grown in low Ca+2; format: cell-based; details: 30 μM Ca+2, suramin 35 μM, 3 hrs
Experimental: FIG. 25. Signals through Gp140/CDCP1 promote α-catenin in cell-cell contacts. Human keratinocytes were grown in low Ca^+2 (30 μM) in order to disassemble adherens junctions that contain cadherins and α-catenin. The keratinocytes were treated without (−Left panel) or with (+Right Panel) Gp140 siRNA to knockdown expression of Gp140. […] Arrows indicate minor subpopulation of cells where Gp140 was not knocked down surrounded by the majority of Gp140 was knocked down.
Signals through Gp140/CDCP1 promote α-catenin in cell-cell contacts. Human keratinocytes were grown in low Ca^+2 (30 μM) in order to disassemble adherens junctions that contain cadherins and α-catenin. The keratinocytes were treated without or with Gp140 siRNA to knockdown expression of Gp140. […] Arrows indicate minor subpopulation of cells where Gp140 was not knocked down surrounded by the majority of Gp140 was knocked down.

T2 sequence (Q9H5V8 30-836): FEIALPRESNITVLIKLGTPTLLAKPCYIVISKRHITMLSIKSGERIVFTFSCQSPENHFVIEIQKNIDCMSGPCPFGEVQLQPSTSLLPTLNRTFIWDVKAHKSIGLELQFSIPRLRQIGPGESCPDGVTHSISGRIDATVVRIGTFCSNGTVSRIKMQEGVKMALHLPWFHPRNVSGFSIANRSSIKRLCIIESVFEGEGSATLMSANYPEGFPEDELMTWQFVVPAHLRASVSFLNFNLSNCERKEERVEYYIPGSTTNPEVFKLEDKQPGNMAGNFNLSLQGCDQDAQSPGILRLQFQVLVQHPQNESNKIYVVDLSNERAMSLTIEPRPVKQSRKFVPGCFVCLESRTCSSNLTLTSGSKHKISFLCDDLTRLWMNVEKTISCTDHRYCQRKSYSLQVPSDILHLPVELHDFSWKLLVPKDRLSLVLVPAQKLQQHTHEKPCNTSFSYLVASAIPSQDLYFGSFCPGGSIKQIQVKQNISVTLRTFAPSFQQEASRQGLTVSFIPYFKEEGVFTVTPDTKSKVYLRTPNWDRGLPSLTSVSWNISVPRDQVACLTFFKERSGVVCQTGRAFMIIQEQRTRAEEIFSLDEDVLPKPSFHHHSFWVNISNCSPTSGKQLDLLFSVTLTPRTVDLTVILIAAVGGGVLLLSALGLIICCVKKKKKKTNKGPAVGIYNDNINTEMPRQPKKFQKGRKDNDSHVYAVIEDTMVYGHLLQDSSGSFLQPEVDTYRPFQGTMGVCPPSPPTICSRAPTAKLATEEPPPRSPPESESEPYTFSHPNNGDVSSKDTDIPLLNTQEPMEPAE
T1 sequence (Q5U462 30-833): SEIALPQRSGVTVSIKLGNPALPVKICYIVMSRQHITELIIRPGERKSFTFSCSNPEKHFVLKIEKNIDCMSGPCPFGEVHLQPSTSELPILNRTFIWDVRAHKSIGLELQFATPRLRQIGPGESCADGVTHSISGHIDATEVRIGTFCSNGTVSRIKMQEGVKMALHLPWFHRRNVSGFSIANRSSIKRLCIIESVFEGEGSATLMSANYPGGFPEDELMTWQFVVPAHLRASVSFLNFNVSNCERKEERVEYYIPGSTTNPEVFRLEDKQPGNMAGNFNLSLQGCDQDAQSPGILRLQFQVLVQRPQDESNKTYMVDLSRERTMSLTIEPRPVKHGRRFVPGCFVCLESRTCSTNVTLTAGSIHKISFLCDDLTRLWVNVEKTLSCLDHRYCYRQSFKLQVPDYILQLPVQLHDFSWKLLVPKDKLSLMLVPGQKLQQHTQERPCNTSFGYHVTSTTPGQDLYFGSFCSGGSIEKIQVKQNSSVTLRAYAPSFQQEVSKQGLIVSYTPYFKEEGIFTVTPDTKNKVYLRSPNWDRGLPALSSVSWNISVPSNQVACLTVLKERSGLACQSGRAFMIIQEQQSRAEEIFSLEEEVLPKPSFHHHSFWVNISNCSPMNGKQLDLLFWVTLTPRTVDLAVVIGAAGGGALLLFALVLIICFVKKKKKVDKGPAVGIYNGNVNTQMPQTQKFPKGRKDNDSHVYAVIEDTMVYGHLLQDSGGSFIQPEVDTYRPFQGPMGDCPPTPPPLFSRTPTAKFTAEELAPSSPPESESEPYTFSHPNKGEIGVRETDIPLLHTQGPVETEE

## CCCC[C@@H](C=O)NC(=O)[C@H](CC(C)C)NC(=O)[C@H](CC(C)C)NC(C)=O [ALLN] (Ac-Leu-Leu-[Nle]-aldehyde)
[1]
  Y247 phosphorylation relative to total Cx43: increases the levels of Y247 phosphorylation relative to total Cx43

## CC1(C)[C@@H](OC(=O)CCC(=O)O)CC[C@]2(C)[C@H]3C(=O)C=C4[C@@H]5C[C@@](C)(C(=O)O)CC[C@]5(C)CC[C@@]4(C)[C@]3(C)CC[C@@H]12 [CBX, 18α-carbenoxalone]
[2]
  wound outgrowth: prevents wound outgrowth when applied before, but not after wounding

## CC(C)(C)n1nc(-c2ccc(Cl)cc2)c2c(N)ncnc21 [PP2]
[3]; PP2 5 μM, 2 h pretreatment, scratch wound, 12 h
  gap junctional density at wound cell-cell interfaces (total Cx43): increases gap junctional density at wound cell-cell interfaces
[3]; keratinocytes
  cell surface Gp140, junctional Cx43 and dye transfer: dramatic increases in cell surface Gp140 and junctional Cx43 and dye transfer

## Cc1ccc(C(=O)Nc2ccc(S(=O)(=O)O)c3cc(S(=O)(=O)O)cc(S(=O)(=O)O)c23)cc1NC(=O)c1cccc(NC(=O)Nc2cccc(C(=O)Nc3cc(C(=O)Nc4ccc(S(=O)(=O)O)c5cc(S(=O)(=O)O)cc(S(=O)(=O)O)c45)ccc3C)c2)c1 [suramin]
[4]
  phosphorylation and cleavage of Gp140 in mouse epidermis: induces phosphorylation and proteolytic cleavage of Gp140 to p80
[5]
  phosphorylation and assembly of Gp140 in detergent-resistant membrane clusters in cell-cell contacts: increases phosphorylation and assembly of Gp140 in detergent-resistant Gp140 membrane clusters
[6]
  PKC activity determined by phosphorylation of VaspS157: increased
[6]; suramin 35 μM
  phosphorylation of Gp140Y734, SFKY416 and PKCdY311 by SFKs: increased phosphorylation
[7]
  α-catenin in cell-cell contacts: dramatic accumulation of α-catenin in cell-cell contacts
